“Also recorded” adds a separate entry of the source. Like-named read-outs stand apart in the source and are kept apart here. Non-standard residues stand in square brackets, D forms with d. Residues, ends and D or L forms follow the SMILES beside them. No end group written: not given here. ξ: configuration not given here. *: point of attachment. Ac6c = NC1(C(=O)O)CCCCC1; ξDap = NCC(N)C(=O)O; X2 = O=C1CCCC1N*
Key:
[1] = tested on: sheep erythrocytes; assay: Hemolytic activity, release of hemoglobin; settings: for Absorbence at 405 nm: 40 μM peptide, one hour, 39° C.
Protocol: To determine whether native and modified pyrrhocoricin peptides were toxic to mammalian cells, several peptides from Example 1 above, a positive control, and a negative control were examined for hemolytic activity. Hemolytic activity was assayed with sheep erythrocytes suspended in Alsever's solution (BioWhittaker, Walkersville, Md.), and diluted with Dulbecco's phosphate-buffered saline, pH 7.2. Thirty μL of a 1% suspension of the red blood cells was incubated with agitation at 39° C. with 30 μL of 40 to 256 μM of each of the following peptides dissolved in phosphate buffered saline for one hour and centrifuged at 1000 g for five minutes. Fifty μL of the supernatant was collected and the release of hemoglobin was detected by measuring the ultraviolet absorbences of triplicate samples of the 40 μM or 256 μM test peptides and the control peptides at 405 nm.

[2] = tested on: Micrococcus luteus
Protocol: (§1) Growth inhibition assays were performed using the peptides of Example 1 and the Gram positive microorganisms Micrococcus luteus and Bacillus megaterium, and the Gram negative microorganisms, Escherichia coli D22, Agrobacterium tumefaciens, and Salmonella typhimurium. Anti-bacterial assays were performed in sterilized 96-well plates (Nunc F96 microtiter plates) with a final volume of 100 μl as described in Bulet (1996), cited above. Briefly, 90 μl of a suspension of a midlogarithmic phase bacterial culture at an initial 600 nm UV absorbence of 0.001 in Luria-Bertani rich nutrient medium was added to 10 μl of serially diluted peptides in sterilized water. The final peptide concentrations ranged between 0.15 and 80 μM. The plates were incubated at 30° C. for 24 hours with gentle shaking, and the growth inhibition was measured by recording the increase of the UV absorbence at 600 nm on an SLT Labinstruments 400 ATC microplate reader. The experiments were conducted over a 7-month period.

[3] = tested on: Agrobacterium tumefaciens
Protocol: as §1

[4] = tested on: Bacillus megaterium
Protocol: as §1

[5] = tested on: Escherichia coli D22; settings: read-out: IC50 in μM against Escherichia coli D22; 30° C., 24 hours; for Peptide 22 original assay (a)
Protocol: as §1

[6] = tested on: Salmonella typhimurium
Protocol: as §1

[7] = tested on: COS cells; assay: Direct killing of immortalized COS cells; type: cell-based
Text: In another toxicity assay, COS cell survival was studied for pyrrhocoricin and cecropin B (Bachem Biosciences, King of Prussia, Pa.) as the positive control.

[8] = human sera, preliminary metabolism studies
Protocol: Owing to the fact that the use of diluted serum increases peptide recovery as well as retards the reaction kinetics to a manageable rate, the experiments were conducted using 25% aqueous sera.
For serum stability studies, 10 μl of an aqueous peptide stock solution containing about 0.8 mg/ml peptide was added to 200 μl 25% aqueous pooled mouse or human serum (Sigma, St. Louis, Mo.), according to the process described in M. F. Powell et al, Pharmacol Res, 10: 1268–1273 (1993). The peptide-serum mixture was thermostated at 37° C. After 0 minutes, 45 minutes, 2 hours and 4 hours, three samples of each peptide were taken and precipitated by the addition of 40 μl 15% aqueous trichloroacetic acid. The samples were stored at 4° C. for 20 minutes and centrifuged. The peptides and some remaining serum proteins were recovered in the supernatant after the trichloroacetic acid precipitation. The supernatants were immediately frozen on dry-ice and 220 μl of each were analyzed on RP-HPLC. A mouse serum and two different batches of the same SIGMA catalog number of human sera (human 1, approximately 1 year old, and human 2, approximately 1 month old) were also used.
The lyophilized samples were redissolved in 0.1 aqueous TFA and submitted for matrix assisted laser desorption/ionization (MALDI-MS).
The missing residues are indicated (e.g—C2 means that the C-terminal two residues are cleaved off). […] In Table 4, the relative amounts of the degradation products are estimated based on the MALDI-MS peak heights. 0=not detected; 1=very weak (below 5000), 2=weak (5–10000), 3=medium (10–15000), 4=strong (15000-uncleaved molecular ion at 25–30000), 5=very strong (above uncleaved molecular ion).

[9] = 25% aqueous pooled mouse serum (Sigma); settings: 37° C., up to 8 hours
[10] = 25% aqueous pooled human serum (Sigma), human 1, approximately 1 year old; settings: 37° C., up to 8 hours
[11] = 25% aqueous pooled human serum (Sigma), human 2, approximately 1 month old; settings: 37° C., up to 8 hours
[12] = read-out: IC50 in μM against Micrococcus luteus, 30° C., 24 hours, for Peptide 22 original assay (a)
[13] = read-out: IC50 in μM against Agrobacterium tumefaciens, 30° C., 24 hours, for Peptide 22 original assay (a)
[14] = read-out: IC50 in μM against Bacillus megaterium, 30° C., 24 hours, for Peptide 22 original assay (a)
[15] = read-out: IC50 in μM against Salmonella typhimurium, 30° C., 24 hours, for Peptide 22 original assay (a)

Molecule | IC50 [2, 12] [µM] | IC50 [3, 13] [µM] | IC50 [4, 14] [µM] | IC50 [5] [µM] | IC50 [6, 15] [µM] | IC50 ([2]; 24 h) [µM] | IC50 ([3]; 24 h) [µM] | also measured
CC[C@H](C)[C@H](NC(=O)[C@H](CCCNC(=N)N)NC(=O)[C@@H](NC(=O)[C@H](Cc1ccc(O)cc1)NC(=O)[C@@H](NC(=O)[C@H](C)N)C(C)C)[C@@H](C)O)C(=O)N[C@@H](CCSC)C(=O)N[C@@H](CCSC)C(=O)N[C@@H](CC(N)=O)C(=O)NCC(=O)NCC(=O)N[C@@H](CCCNC(=N)N)C(=O)N[C@@H](CC(C)C)C(=O)N[C@@H](CCCCN)C(=O)N[C@@H](CCCNC(=N)N)C(N)=O [Peptide 31D, reference compound] | – | – | – | – | – | – | – | Absorbence at 405 nm [1]: 0.160 ± 0.021
CC[C@H](C)[C@H](NC(=O)CN)C(=O)NCC(=O)N[C@@H](C)C(=O)N[C@H](C(=O)N[C@@H](CC(C)C)C(=O)N[C@@H](CCCCN)C(=O)N[C@H](C(=O)N[C@@H](CC(C)C)C(=O)N[C@H](C(=O)N[C@H](C(=O)NCC(=O)N[C@@H](CC(C)C)C(=O)N1CCC[C@H]1C(=O)N[C@@H](C)C(=O)N[C@@H](CC(C)C)C(=O)N[C@H](C(=O)N[C@@H](CO)C(=O)N[C@@H](Cc1c[nH]c2ccccc12)C(=O)N[C@H](C(=O)N[C@@H](CCCCN)C(=O)N[C@@H](CCCNC(=N)N)C(=O)N[C@@H](CCCCN)C(=O)N[C@@H](CCCNC(=N)N)C(=O)N[C@@H](CCC(N)=O)C(=O)N[C@@H](CCC(N)=O)C(N)=O)[C@@H](C)CC)[C@@H](C)CC)[C@@H](C)O)[C@@H](C)O)C(C)C)C(C)C [Melittin, reference compound] | – | – | – | – | – | – | – | lowest concentration that lysed sheep erythrocytes [1]: 5 µM; Absorbence at 405 nm [1]: 2.99 ± 0.06; lysis of erythrocytes (in words) ([1]; final concentration of 40 μM): lysed the erythrocytes
VDKGSYLPRPTPPRPIYN [Peptide 25] | > 80 | > 80 | > 80 | > 80 | > 80 | – | – | –
CC[C@H](C)[C@H](NC(=O)[C@@H]1CCCN1C(=O)[C@H](CCCNC(=N)N)NC(=O)[C@@H]1CCCN1C(=O)[C@@H]1CCCN1C(=O)[C@@H](NC(=O)[C@@H]1CCCN1C(=O)[C@H](CCCNC(=N)N)NC(=O)[C@@H]1CCCN1C(=O)[C@H](CC(C)C)NC(=O)[C@H](Cc1ccc(O)cc1)NC(=O)[C@H](CO)NC(=O)CNC(=O)[C@H](CCCCN)NC(=O)[C@H](CC(=O)O)NC(=O)[C@@H](NC(=O)[C@H](CCCCN)NC(C)=O)C(C)C)[C@@H](C)O)C(=O)N[C@@H](Cc1ccc(O)cc1)C(=O)N[C@@H](CC(N)=O)C(=O)N[C@@H](CCCNC(=N)N)C(=O)NC1CCCC1=O (stereo partly drawn) [Peptide 8] (Ac-KVDKGSYLPRPTPPRPIYNR-X2; N-terminus and C-terminus assumed) | – | – | – | – | – | 5 | 1.25 | IC50 ([4]; Bacillus, 24 h): 20 µM; IC50 ([6]; murium, 24 h): 2.5 µM
Cecropin [reference compound] | – | – | – | – | – | – | – | Cell Count after Treatment ([7]; 5 μM peptide): 6 ± 6; Cell Count after Treatment ([7]; 10 μM peptide): 6.7 ± 0.3; Cell Count after Treatment ([7]; 50 μM peptide): 7.3 ± 3.7; effect on COS cell count (in words) ([7]; at as low as 5 μM concentration): reduced the cell count
CC[C@H](C)[C@H](NC(=O)[C@@H]1CCCN1C(=O)[C@H](CCCNC(=N)N)NC(=O)[C@@H]1CCCN1C(=O)[C@@H]1CCCN1C(=O)[C@@H](NC(=O)[C@@H]1CCCN1C(=O)[C@H](CCCNC(=N)N)NC(=O)[C@@H]1CCCN1C(=O)[C@H](CC(C)C)NC(=O)[C@H](Cc1ccccc1)NC(=O)[C@H](C)NC(=O)CNC(=O)[C@H](CCCCN)NC(=O)[C@H](CC(=O)O)NC(=O)C1(N)CCCCC1)[C@@H](C)O)C(=O)N[C@@H](Cc1ccc(O)cc1)C(=O)N[C@@H](CC(N)=O)C(=O)N[C@@H](CCCNC(=N)N)C(=O)NC(CNC(C)=O)C(N)=O (stereo partly drawn) [Peptide 23] (H-[Ac6c]DKGAFLPRPTPPRPIYNR[ξDap](Ac)-NH2) | – | – | – | 20 | – | 5 | – | IC50 ([4]; Bacillus, 24 h): 40 µM
CC[C@H](C)[C@@H]1NC(=O)[C@@H]2CCCN2C(=O)[C@H](CCCNC(=N)N)NC(=O)[C@@H]2CCCN2C(=O)[C@@H]2CCCN2C(=O)[C@H]([C@@H](C)O)NC(=O)[C@@H]2CCCN2C(=O)[C@H](CCCNC(=N)N)NC(=O)[C@@H]2CCCN2C(=O)[C@H](CC(C)C)NC(=O)[C@H](Cc2ccc(O)cc2)NC(=O)[C@H](CO)NC(=O)CNC(=O)[C@H](CCCCN)NC(=O)[C@H](CC(=O)O)NC(=O)[C@H](C(C)C)NC(=O)[C@H](CCCCN)NC(=O)[C@H](CC(C)C)NC(=O)[C@@H]2CCCN2C(=O)[C@H](CCCNC(=N)N)NC(=O)[C@@H]2CCCN2C(=O)[C@H]([C@@H](C)O)NC(=O)[C@@H]2CCCN2C(=O)[C@@H]2CCCN2C(=O)[C@H](CCCNC(=N)N)NC(=O)[C@H](CC(N)=O)NC(=O)[C@H](CCCNC(=N)N)NC(=O)[C@H](CC(N)=O)NC(=O)[C@H](Cc2ccc(O)cc2)NC1=O [Peptide 17] (cyclo(KVDKGSYLPRPTPPRPIYNRNRPPTPRPL)) | – | – | – | – | – | 0.6 | 2.5 | IC50 ([4]; Bacillus, 24 h): 2.5 µM; IC50 ([6]; murium, 24 h): 5 µM; endopeptidase cleavage site [8]: between Asn 18 and Arg19
VDKGSYLPRPTPPRPIYNRN [Peptide 2, reference compound] | > 80 | 0.3 | 40 | 0.3 | 2.5 | – | – | –
Ac-KVDKGSYLPRPTPPRPIYNRN-NH2 (C-terminus assumed) [Peptide 5] | – | – | > 80 | – | – | 40 | 5 | IC50 ([6]; murium, 24 h): 40 µM
CC[C@@H](C)[C@@H](NC(=O)[C@H]1CCCN1C(=O)[C@@H](CCCNC(=N)N)NC(=O)[C@H]1CCCN1C(=O)[C@H]1CCCN1C(=O)[C@H](NC(=O)[C@H]1CCCN1C(=O)[C@@H](CCCNC(=N)N)NC(=O)[C@H]1CCCN1C(=O)[C@@H](CC(C)C)NC(=O)[C@@H](Cc1ccc(O)cc1)NC(=O)[C@@H](CO)NC(=O)CNC(=O)[C@@H](CCCCN)NC(=O)[C@@H](CC(=O)O)NC(=O)[C@H](N)C(C)C)[C@H](C)O)C(=O)N[C@H](Cc1ccc(O)cc1)C(=O)N[C@H](CC(N)=O)C(=O)N[C@H](CCCNC(=N)N)C(=O)N[C@H](CC(N)=O)C(N)=O [Peptide 13] (H-[dV][dD][dK]G[dS][dY][dL][dP][dR][dP][dT][dP][dP][dR][dP][dI][dY][dN][dR][dN]-NH2; N-terminus and C-terminus assumed) | – | > 80 | > 80 | > 80 | > 80 | 40 | – | –
VDKGSYLPR [Peptide 14] | > 80 | > 80 | > 80 | > 80 | > 80 | – | – | –
Ac-KVDKGSYLPRPTPPRPIYNRD-NH2 (C-terminus assumed) [Peptide 20] | > 80 | – | > 80 | – | > 80 | – | 40 | –
1-aminocyclo-hexane carboxylic acid (Chex)-Pyrrhocoricin-β-acetyl-2,3-diamino propionic amide [Dap(Ac)] | – | – | – | – | – | – | – | cleaved bond [9]: Asn18-Arg19, 45-minute; also recorded: Ser5-Tyr6, 45-minute; not cleaved [9]: −C1 not detected (0) after 45-minute digestion; cleaved bond [10]: Asn18-Arg19, 45-minute; also recorded: Ser5-Tyr6, 45-minute; fragment found [10]: −C3, 45-minute; also recorded: −N5, C2, 45-minute; not cleaved [10]: −C1 not detected (0) after 45-minute digestion; cleaved bond [11]: Asn18-Arg19, 45-minute; also recorded: Ser5-Tyr6, 45-minute; fragment found [11]: −N5, C2, 45-minute; not cleaved [11]: −C1 not detected (0) after 45-minute digestion
VDKGSYLPRPTPPRPIYNRN | – | – | – | – | – | – | – | cleaved bond [9]: Arg19-Asn20, first_seen, 45 minute; also recorded: Asn18-Arg19, 45-minute; cleaved bond [10]: Arg19-Asn20, first_seen, 45 minute; also recorded: Asn18-Arg19, 45-minute; also recorded: Ser5-Tyr6, 45-minute; fragment found [10]: −C3, 45-minute; also recorded: −C6, 45-minute; cleaved bond [11]: Arg19-Asn20, first_seen, 45 minute; also recorded: Asn18-Arg19, 45-minute
Ac-KVDKVDKGSYLPRPTPPRPIYNRN-NH2 (C-terminus assumed) [Peptide 3] | – | – | > 80 | – | – | 80 | 10 | IC50 ([6]; murium, 24 h): 5 µM
PTPPRPIYNRN [Peptide 15] | > 80 | > 80 | > 80 | > 80 | > 80 | – | – | –

Reference: US7015309B1 (The Wistar Institute of Anatomy and Biology, priority 1999, dated 2006)
